Assay results as given in patent publication US20230257385A1, “SALT AND SOLID FORMS OF TABERNANTHALOG” (priority 2021, published 2023).
Read-outs that look alike come from different tables or passages of the source.

Legend:
[1] = cited from earlier work
[2] = Thermocycling of the monofumarate salt (Experiment Reference 9); assay type: physicochemical; conditions: for XRPD (moist pellet): form (pattern) of wet pellet after thermocycling; for XRPD crystallinity (oven dried): tabernanthalog monofumarate salt thermocycled between 20° C. and peak T (75% of solvent b.p.), solvent, input and number of cycles per sample reference
Protocol: The tabernanthalog monofumarate salt (Pattern #1, 75 mg, 1 wt) was weighed out in to 4 separate vials and the corresponding solvents (750 μl, 10 vol) from Table 89 were charged.
The suspensions underwent constant amplitude thermocycling at +0.5° C./min up to 75% of the relevant solvent b.p. and −0.5° C./min down to 20° C. The thermocycle was repeated 5 times for 9-A (Experiment Reference 9-Sample Reference A) to 9-D (Experiment Reference 9-Sample Reference D) prior to working up the samples, analyzed the by XRPD (wet and dry). 9-E (Experiment Reference 9-Sample Reference E) and 9-F (Experiment Reference 9-Sample Reference F) were subjected to 10 cycles and 9-G (Experiment Reference 9-Sample Reference G) to 35 cycles.
Thermocycling in different solvents can promote the formation of alternative polymorphic forms. The tabernanthalog monofumarate salt (Pattern #1), was heated and cooled between 20° C. and 75% of the relevant solvent b.p. at 0.5° C./minute, for 5 consecutive cycles; a 10-minute dwell was incorporated at each inflection. Thermocycling is ripening technique, that encourages particle size enlargement and promotes the evolution of the API into a stable phase. […] The products were analyzed both wet and dry to determine if form changes had occurred, all products were consistent with previously encountered patterns, and by DSC none of the products were single phase.

[3] = counter ion (acid), theoretical pKa value

| Compound | pKa1 [1, 3] | pKa1 ([1]; counter ion of the salt screen) | XRPD (moist pellet) [2] | XRPD crystallinity (oven dried) [2] [%] | also measured |
| --- | --- | --- | --- | --- | --- |
| O=C(O)[C@H](O)[C@@H](O)[C@H](O)[C@H](O)CO [D-Gluconic acid] | 3.8 | 3.80 |  |  |  |
| O=C[C@H](O)[C@@H](O)[C@H](O)[C@H](O)C(=O)O [D-Glucuronic acid] | 3.2 | 3.20 |  |  |  |
| CCS(=O)(=O)O [Ethane sulfonic acid] | 2.05 |  |  |  |  |
| O=S(=O)(O)CCS(=O)(=O)O [Ethane-1,2-disulfonic acid] |  | −2.10 |  |  | pKa2 ([1]; counter ion of the salt screen): −1.50 |
| CCS(=O)(=O)O [Ethanesulfonic acid] |  | −2.10 |  |  | pKa2 ([1]; counter ion of the salt screen): −1.50 |
| O=C(O)[C@@H](O)[C@H](O)[C@H](O)[C@@H](O)C(=O)O [Galactaric acid] | 3.1 |  |  |  | pKa2 [1, 3]: 3.6 |
| O=C(O)CO [Glycolic acid] | 3.3 | 3.30 |  |  |  |
| Br [Hydrobromic acid] |  | −9.00 |  |  |  |
| COc1ccc2c3c([nH]c2c1)CCN(C)CC3.O=C(O)/C=C/C(=O)O [Pattern 9-A] |  |  | Incoherent | 82.1 | crystal form change following dry ([2]; moist pellet vs oven dried pellet after thermocycling, ✓ / x): ✓ |
| COc1ccc2c3c([nH]c2c1)CCN(C)CC3.O=C(O)/C=C/C(=O)O [Pattern 9-B] |  |  | Pattern #1 | 73.6 |  |
| COc1ccc2c3c([nH]c2c1)CCN(C)CC3.O=C(O)/C=C/C(=O)O [Pattern 9-C] |  |  | Pattern #8 | 72.8 |  |
| COc1ccc2c3c([nH]c2c1)CCN(C)CC3.O=C(O)/C=C/C(=O)O [Pattern 9-D] |  |  | Pattern #3 | 74.5 |  |
| COc1ccc2c3c([nH]c2c1)CCN(C)CC3.O=C(O)/C=C/C(=O)O [Pattern 9-E] |  |  | Pattern #2c | 77.1 |  |
